Molecular target: GST tagged IRAK4 (Homo sapiens (Human), UniProt Q9NWZ3)
Assay: IRAK4 Kinase Assay (IMAP fluorescence polarization)
Format: biochemical
Conditions: 0.5 nM GST tagged IRAK4, 100 nM fluorescent peptide substrate RP7030, 100 μM ATP, 30 minutes at 25° C., IMAP FP readout
Protocol: The kinase activity of IRAK4 is determined by its ability to catalyze the phosphorylation of a fluorescent polypeptide substrate. The extent of phosphorylation is measured using the IMAP technology (Molecular Devices) where the phosphorylated fluorescent substrate binds to the large M(III)-based nanoparticles which reduces the rotational speed of the substrate and thus increases its fluorescent polarization (FP).
20 μL reaction mixture contains 10 mM TriHCl, pH 7.2, 0.5 nM GST tagged IRAK4 (SignalChem), 100 nM fluorescent peptide substrate (RP7030, Molecular Devices), 100 μM ATP, 1 mM DDT, 1 mM MgCl2, and 0.01% Tween 20. The reaction is initiated by the addition of ATP. After incubation for 30 minutes at 25° C., 60 μL of Progressive IMAP Reagent (Molecular Devices) is added to stop the reaction. Change in RP7030's FP is determined by a FP reader (Analyst HT, LJL BioSystems).

Sequence of GST tagged IRAK4 (Q9NWZ3 whole entry): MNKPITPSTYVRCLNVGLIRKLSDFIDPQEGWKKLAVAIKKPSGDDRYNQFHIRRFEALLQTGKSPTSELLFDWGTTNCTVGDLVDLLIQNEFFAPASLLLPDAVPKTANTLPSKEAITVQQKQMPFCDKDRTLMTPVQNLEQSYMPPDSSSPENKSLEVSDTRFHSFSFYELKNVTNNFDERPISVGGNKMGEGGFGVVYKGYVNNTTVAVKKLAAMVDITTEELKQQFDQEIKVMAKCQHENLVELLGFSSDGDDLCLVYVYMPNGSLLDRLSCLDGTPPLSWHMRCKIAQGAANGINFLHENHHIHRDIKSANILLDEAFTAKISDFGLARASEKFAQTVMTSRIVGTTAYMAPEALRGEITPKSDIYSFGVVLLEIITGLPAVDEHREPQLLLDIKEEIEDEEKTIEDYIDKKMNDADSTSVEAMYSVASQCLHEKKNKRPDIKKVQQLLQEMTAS

IC50	SMILES
1210 nM	Cc1cc2ncnc(N[C@H]3CC[C@H](N(C)C)CC3)c2cc1C [Example 1-1, (trans)-N1-(6,7-dimethylquinazolin-4-yl)-N4,N4-dimethylcyclohexane-1,4-diamine]
19 nM	Cc1ccc2ncnc(N[C@H]3CC[C@H](N(C)C)CC3)c2c1 [Example 1-2, trans-N,N-dimethyl-N′-(6-methylquinazolin-4-yl)cyclohexane-1,4-diamine]
12 nM	Cc1ccc2ncnc(N[C@H]3CC[C@H](N4CCOCC4)CC3)c2c1 [Example 1-3, 6-methyl-N-(trans-4-morpholin-4-ylcyclohexyl)quinazolin-4-amine]
15 nM	FC(F)(F)c1ccc2ncnc(N[C@H]3CC[C@H](N4CCOCC4)CC3)c2c1 [Example 1-4, N-(trans-4-morpholin-4-ylcyclohexyl)-6-(trifluoromethyl)quinazolin-4-amine]
32 nM	Cc1cc2c(N[C@H]3CC[C@H](N4CCOCC4)CC3)ncnc2cc1F [Example 1-5, 7-fluoro-6-methyl-N-(trans-4-morpholin-4-ylcyclohexyl)quinazolin-4-amine]
9 nM	CN(C)[C@H]1CC[C@H](Nc2ncnc3ccc(C(F)(F)F)cc23)CC1 [Example 1-6, trans-N,N-dimethyl-N′-[6-(trifluoromethyl)quinazolin-4-yl]cyclohexane-1,4-diamine]
65 nM	Cc1ccc2ncnc(O[C@H]3CC[C@H](N4CCOCC4)CC3)c2c1 [Example 1-7, 4-((trans)-4-((6-methylquinazolin-4-yl)oxy)cyclohexyl)morpholine]
384 nM	Cc1ccc2ncnc(N[C@H]3CC[C@H](N4CC(S(C)(=O)=O)C4)CC3)c2c1 [Example 2-1, 6-methyl-N-((1R,4R)-4-(3-(methylsulfonyl)azetidin-1-yl)cyclohexyl)quinazolin-4-amine]
1360 nM	Cc1ccc2ncnc(N[C@H]3CC[C@@H](N4CC(F)C4)CC3)c2c1 [Example 2-2, N-[cis-4-(3-fluoroazetidin-1-yl)cyclohexyl]-6-methylquinazolin-4-amine]
94 nM	Cc1ccc2ncnc(N[C@H]3CC[C@H](N4CC(F)C4)CC3)c2c1 [Example 2-3, N-[trans-4-(3-fluoroazetidin-1-yl)cyclohexyl]-6-methylquinazolin-4-amine]
2200 nM	Cc1ccc2ncnc(N[C@H]3CC[C@@H](N4CCNC(=O)C4)CC3)c2c1 [Example 2-4, 4-{cis-4-[(6-methylquinazolin-4-yl)amino]cyclohexyl}piperazin-2-one]
113 nM	Cc1ccc2ncnc(N[C@H]3CC[C@H](N4CCNC(=O)C4)CC3)c2c1 [Example 2-5, 4-{trans-4-[(6-methylquinazolin-4-yl)amino]cyclohexyl}piperazin-2-one]
2350 nM	Cc1ccc2ncnc(N[C@H]3CC[C@H](N4CC(O)C4)CC3)c2c1 [Example 2-6, 1-{trans-4-[(6-methylquinazolin-4-yl)amino]cyclohexyl}azetidin-3-ol]
37 nM	Cc1ccc2ncnc(N[C@H]3CC[C@@H](N4CC(O)C4)CC3)c2c1 [Example 2-7, 1-{cis-4-[(6-methylquinazolin-4-yl)amino]cyclohexyl}azetidin-3-ol]
234 nM	Cc1ccc2ncnc(N[C@H]3CC[C@H](N4CCC(F)(F)C4)CC3)c2c1 [Example 2-8, N-[trans-4-(3,3-difluoropyrrolidin-1-yl)cyclohexyl]-6-methylquinazolin-4-amine]
95 nM	Cc1ccc2ncnc(N[C@H]3CC[C@H](N4CCC5(COC5)C4)CC3)c2c1 [Example 2-9, 6-methyl-N-[trans-4-(2-oxa-6-azaspiro[3.4]oct-6-yl)cyclohexyl]quinazolin-4-amine]
384 nM	Cc1ccc2ncnc(N[C@H]3CC[C@@H](N4CC(S(C)(=O)=O)C4)CC3)c2c1 [Example 2-10, 6-methyl-N-{cis-4-[3-(methylsulfonyl)azetidin-1-yl]cyclohexyl}quinazolin-4-amine]
88 nM	Cc1ccc2ncnc(NC3CCC(N4CCC(C(F)(F)F)CC4)CC3)c2c1 (stereo not drawn) [Example 2-11, 6-methyl-N-{4-[4-(trifluoromethyl)piperidin-1-yl]cyclohexyl}quinazolin-4-amine]
9380 nM	Cc1ccc2ncnc(NC3CCC(N4CCC(C(F)(F)F)CC4)CC3)c2c1 (stereo not drawn) [Example 2-12, 6-methyl-N-{4-[4-(trifluoromethyl)piperidin-1-yl]cyclohexyl}quinazolin-4-amine]
17 nM	Cc1ccc2ncnc(NC3CCC(N4CCCC(C(F)(F)F)C4)CC3)c2c1 (stereo not drawn) [Example 2-13, 6-methyl-N-{4-[3-(trifluoromethyl)piperidin-1-yl]cyclohexyl}quinazolin-4-amine]

IC50	SMILES
3230 nM	Cc1ccc2ncnc(NC3CCC(N4CCCCC4C(F)(F)F)CC3)c2c1 (stereo not drawn) [Example 2-14, 6-methyl-N-{4-[2-(trifluoromethyl)piperidin-1-yl]cyclohexyl}quinazolin-4-amine]
1760 nM	Cc1ccc2ncnc(NC3CCC(N4CCCCC4C(F)(F)F)CC3)c2c1 (stereo not drawn) [Example 2-15, 6-methyl-N-{4-[2-(trifluoromethyl)piperidin-1-yl]cyclohexyl}quinazolin-4-amine]
269 nM	Cc1ccc2ncnc(NC3CCC(N4CCCC(C(F)(F)F)C4)CC3)c2c1 (stereo not drawn) [Example 2-16, 6-methyl-N-{4-[3-(trifluoromethyl)piperidin-1-yl]cyclohexyl}quinazolin-4-amine]
77 nM	Cc1ccc2ncnc(N[C@H]3CC[C@H](NC4CCOCC4)CC3)c2c1 [Example 2-17, (trans)-N1-(6-methylquinazolin-4-yl)-N4-(tetrahydro-2H-pyran-4-yl)cyclohexane-1,4-diamine]
46 nM	Cc1ccc2ncnc(N[C@H]3CC[C@H](NCC4CCOCC4)CC3)c2c1 [Example 2-18, trans-N-(6-methylquinazolin-4-yl)-N′-(tetrahydro-2H-pyran-4-ylmethyl)cyclohexane-1,4-diamine]
54 nM	Cc1ccc2ncnc(N[C@H]3CC[C@H](N[C@H]4CCOC(C)(C)C4)CC3)c2c1 [Example 2-19, trans-N-[(4S)-2,2-dimethyltetrahydro-2H-pyran-4-yl]-N′-(6-methylquinazolin-4-yl)cyclohexane-1,4-diamine]
45 nM	Cc1ccc2ncnc(N[C@H]3CC[C@H](NCc4cccs4)CC3)c2c1 [Example 2-20, trans-N-(6-methylquinazolin-4-yl)-N′-(thiophen-2-ylmethyl)cyclohexane-1,4-diamine]
73 nM	Cc1ccc2ncnc(N[C@H]3CC[C@H](N[C@@H](C)C4CC4)CC3)c2c1 [Example 2-21, trans-N-[(1S)-1-cyclopropylethyl]-N′-(6-methylquinazolin-4-yl)cyclohexane-1,4-diamine]
67 nM	Cc1ccc2ncnc(N[C@H]3CC[C@H](N[C@@H](C)CC(F)(F)F)CC3)c2c1 [Example 2-22, trans-N-(6-methylquinazolin-4-yl)-N′-[(1S)-3,3,3-trifluoro-1-methylpropyl]cyclohexane-1,4-diamine]
123 nM	Cc1ccc2ncnc(N[C@H]3CC[C@H](N[C@@H](C)C(C)(C)O)CC3)c2c1 [Example 2-23, (3S)-2-methyl-3-({trans-4-[(6-methylquinazolin-4-yl)amino]cyclohexyl}amino)butan-2-ol]
44 nM	Cc1ccc2ncnc(N[C@H]3CC[C@H](NC(C)C)CC3)c2c1 [Example 2-24, trans-N-(1-methylethyl)-N′-(6-methylquinazolin-4-yl)cyclohexane-1,4-diamine]
31 nM	Cc1ccc2ncnc(N[C@H]3CC[C@H](NCC4CC4)CC3)c2c1 [Example 2-25, trans-N-(cyclopropylmethyl)-N′-(6-methylquinazolin-4-yl)cyclohexane-1,4-diamine]
47 nM	Cc1ccc2ncnc(N[C@H]3CC[C@H](NCc4ccnn4C)CC3)c2c1 [Example 2-26, trans-N-[(1-methyl-1H-pyrazol-5-yl)methyl]-N′-(6-methylquinazolin-4-yl)cyclohexane-1,4-diamine]
77 nM	Cc1ccc2ncnc(N[C@H]3CC[C@H](NCC4(C)COC4)CC3)c2c1 [Example 2-27, trans-N-[(3-methyloxetan-3-yl)methyl]-N′-(6-methylquinazolin-4-yl)cyclohexane-1,4-diamine]
25 nM	Cc1ccc2ncnc(N[C@H]3CC[C@H](NCCC(F)(F)F)CC3)c2c1 [Example 2-28, trans-N-(6-methylquinazolin-4-yl)-N′-(3,3,3-trifluoropropyl)cyclohexane-1,4-diamine]
69 nM	Cc1ccc2ncnc(N[C@H]3CC[C@H](NCC(C)(C)C)CC3)c2c1 [Example 2-29, trans-N-(2,2-dimethylpropyl)-N′-(6-methylquinazolin-4-yl)cyclohexane-1,4-diamine]
126 nM	Cc1ccc2ncnc(N[C@H]3CC[C@H](N[C@@H](C)C(F)F)CC3)c2c1 [Example 2-30, trans-N-[(1S)-2,2-difluoro-1-methylethyl]-N′-(6-methylquinazolin-4-yl)cyclohexane-1,4-diamine]
56 nM	Cc1ccc2ncnc(N[C@H]3CC[C@H](N[C@@H](C)CS(C)(=O)=O)CC3)c2c1 [Example 2-31, trans-N-[(1S)-1-methyl-2-(methylsulfonyl)ethyl]-N′-(6-methylquinazolin-4-yl)cyclohexane-1,4-diamine]
145 nM	CN(C)[C@H]1CC[C@H](Nc2ncnc3ccc(/C=C/C4CC4)cc23)CC1 [Example 3-1, (trans)-N1-(6-((E)-2-cyclopropylvinyl)quinazolin-4-yl)-N4,N4-dimethylcyclohexane-1,4-diamine]

— US9926330B2, “Inhibitors of IRAK4 activity” (MERCK SHARP & DOHME CORP., priority 2014, dated 2018)
